Here are results for 47 compounds from patent publication US7511041B2, “Fused azole-pyrimidine derivatives” (Bayer Pharmaceuticals Corporation, priority 2002, dated 2009).

Structures are written as SMILES.

The target of data set [1] is T1, Recombinant human PI3Kγ (full length human PI3K p110γ) (Homo sapiens, UniProt P48736).
T1 construct: full length human PI3K p110γ fused with a His6-tag at the C-terminus; His6 (C); purchased ALEXIS BIOCHEMICALS #201-055-C010; host or cells: S. frugiperda 9 insect cells
Nature of the data set: Kinase assay of PI3Kγ (solid-phase lipid kinase assay). The class given is biochemical. The conditions noted are these: Table 1, isozyme not given; read-out: in vitro. An excerpt:
[Determination of IC50 Values of Compounds in Kinase Assay of PI3Kγ]
Chemicals and Assay Materials
LABORATORIES (Toronto, Canada). Recombinant human PI3Kγ (full length human PI3K p110γ fused with a His6-tag at the C-terminus expressed in S. frugiperda 9 insect cells) was obtained from ALEXIS BIOCHEMICALS (#201-055-C010; San Diego, Calif.). […] BIOTECH (Buckinghamshire, UK) and ROCHE DIAGNOSTICS (Mannheim, Germany), respectively. Scintillation cocktails and MicroScint PS™ were purchased from PACKARD (Meriden, Conn.). Maxisorp™ plates were purchased from NALGE NUNC INTERNATIONAL K.K. (Tokyo, Japan). All other chemicals not further specified were from WAKO PURE CHEMICALS (Osaka, Japan).
Solid-Phase Lipid Kinase Assay
The plates were subsequently air-dried by incubation for at least 2 hours in a fume hood. The reaction was set up by mixing 25 μl/well of assay buffer 2× (100 mM MOPSO/NaOH, 0.2 M NaCl, pH 7.0, 8 mM MgCl2, 2 mg/ml BSA (fatty acid-free)) and 50 ng/well PI3Kγ in the lipid pre-coated plate and 10× test compounds were added in 2% DMSO. The reaction was started by adding 20 μl/well of ATP mix (final 10 μM ATP; 0.05 μCi/well [γ^33P]ATP). After incubation at RT for 2 hours, the reaction was terminated by adding 50 μl/well stop solution (50 mM EDTA, pH 8.0). The plate was then washed twice with Tris-buffered saline (TBS, pH 7.4). MicroScint PS™ (PACKARD) scintillation mix was added at 100 μl/well, and radioactivity was counted by using a TopCount™ (PACKARD) scintillation counter.
The inhibition percent at each concentration of compound was calculated, and IC50 values were determined from the inhibition of curve.

What is called melting point is the temperature, or range, at which the solid turns liquid.

T1 sequence (P48736 whole entry, the tested form may be a part): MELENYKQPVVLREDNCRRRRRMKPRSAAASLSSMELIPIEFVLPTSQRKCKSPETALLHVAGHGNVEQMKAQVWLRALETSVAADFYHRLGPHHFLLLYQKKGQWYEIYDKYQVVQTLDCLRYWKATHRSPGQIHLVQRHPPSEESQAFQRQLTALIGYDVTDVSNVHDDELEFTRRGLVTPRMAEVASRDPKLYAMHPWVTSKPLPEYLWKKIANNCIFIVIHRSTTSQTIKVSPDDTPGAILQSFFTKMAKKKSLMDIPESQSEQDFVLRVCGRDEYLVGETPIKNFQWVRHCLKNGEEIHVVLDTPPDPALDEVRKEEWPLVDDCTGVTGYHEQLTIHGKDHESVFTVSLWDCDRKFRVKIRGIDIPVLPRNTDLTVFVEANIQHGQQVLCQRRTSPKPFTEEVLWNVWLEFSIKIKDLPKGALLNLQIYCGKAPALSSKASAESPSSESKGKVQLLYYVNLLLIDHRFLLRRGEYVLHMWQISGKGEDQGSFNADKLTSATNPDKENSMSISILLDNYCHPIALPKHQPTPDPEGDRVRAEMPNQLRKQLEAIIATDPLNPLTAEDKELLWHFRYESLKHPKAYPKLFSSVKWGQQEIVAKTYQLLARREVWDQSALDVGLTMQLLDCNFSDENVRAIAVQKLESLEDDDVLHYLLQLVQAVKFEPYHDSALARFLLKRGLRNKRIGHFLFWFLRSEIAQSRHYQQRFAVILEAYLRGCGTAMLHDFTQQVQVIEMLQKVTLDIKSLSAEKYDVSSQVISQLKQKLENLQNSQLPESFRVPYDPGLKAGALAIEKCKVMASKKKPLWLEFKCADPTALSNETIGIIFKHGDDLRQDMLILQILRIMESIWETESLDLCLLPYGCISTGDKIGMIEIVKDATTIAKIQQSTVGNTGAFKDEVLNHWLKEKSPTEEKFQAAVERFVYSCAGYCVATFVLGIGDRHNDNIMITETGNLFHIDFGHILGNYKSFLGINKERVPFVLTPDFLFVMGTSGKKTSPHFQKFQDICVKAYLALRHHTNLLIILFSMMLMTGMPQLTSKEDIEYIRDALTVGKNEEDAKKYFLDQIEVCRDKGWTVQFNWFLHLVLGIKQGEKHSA

The compound `COc1cc2c(cc1OC)C1=NCCN1C(/C=C(\O)c1ccc(NC(C)=O)nc1)=N2.Cl` [Example 1-51] came in with a melting point of 275 to 280 °C. Moreover, in data set [1], the IC50 lay in the range of 100 to 500 nM.

On to `CNc1ccc(/C(O)=C/C2=Nc3cc(OC)c(OC)cc3C3=NCCN23)cn1` [Example 1-52], for which the melting point fell in the range of 321 to 325 °C. Also, the IC50 in data set [1] was in the range of 100 to 500 nM.

For `COc1cc2c(cc1OC)C1=NCCN1C(/C=C(\O)c1ccc(NCCO)nc1)=N2` [Example 1-54], the melting point was determined as 207 °C. Besides, the IC50 in data set [1] lay within 100 to 500 nM.

On to `COc1cc2c(cc1OC)C1=NCCN1C(/C=C(\O)c1ccc(Cl)nc1)=N2` [Example 1-55], for which the melting point stood at 283 °C. Besides, the IC50 in data set [1] was 100 to 500 nM.

In the case of `COc1cc2c(cc1OC)C1=NCCN1C(/C=C(\O)c1ccc3[nH]cnc3c1)=N2.Cl` [Example 1-57], the melting point is 240 °C (dec.). Further, the IC50 in data set [1] is less than 100 nM.

As for `COc1cc2c(cc1OC)C1=NCCN1C(/C=C(\O)c1cccs1)=N2` [Example 1-58], the melting point was 250 °C. Moreover, the IC50 in data set [1] was in the range of 100 to 500 nM.

Consider `COc1cc2c(cc1OC)C1=NCCN1C(/C=C(\O)c1sc(C)nc1C)=N2` [Example 1-60], for which the melting point was found to be 292 °C. Also, the IC50 in data set [1] is less than 100 nM.

`COc1cc2c(c(OC)c1C)N=C(/C=C(\O)c1cccnc1)N1CCN=C21` [Example 1-62] registered a melting point of 278 °C. The IC50 in data set [1] was less than 100 nM.

With `COc1cc2c(c(OC)c1C)N=C(/C=C(\O)c1ccc(NC(C)=O)nc1)N1CCN=C21` [Example 1-64], the melting point is greater than 285 °C. For the same compound, in data set [1], the IC50 was less than 100 nM.

On to `COc1cc2c(c(OC)c1C)N=C(/C=C(\O)c1ccc3[nH]cnc3c1)N1CCN=C21` [Example 1-66], for which the melting point turned out to be 280 °C. The IC50 in data set [1] was in the range of 100 to 500 nM.

`COc1cccc2c1N=C(/C=C(\O)c1cccnc1)N1CCN=C21` [Example 1-68] gave a melting point of 275 °C. The IC50 in data set [1] is less than 100 nM.

Regarding `Cl.O/C(=C\C1=Nc2c(F)cccc2C2=NCCN12)c1cccnc1` [Example 1-70], the melting point was 218 °C. Besides, the IC50 in data set [1] is less than 100 nM.

On to `Cl.O/C(=C\C1=Nc2c(F)cccc2C2=NCCN12)c1cccnc1` [Example 1-71], for which the melting point was determined as 303 °C. Besides, in data set [1], the IC50 lay within 100 to 500 nM.

`O/C(=C\C1=Nc2c(Cl)cccc2C2=NCCN12)c1cccnc1` [Example 1-72]: the melting point was 210 °C (dec.). Further, the IC50 in data set [1] lay in the range of 100 to 500 nM.

Regarding `O/C(=C\C1=Nc2c(Br)cccc2C2=NCCN12)c1cccnc1` [Example 1-73], the melting point was 120 °C (dec.). Further, the IC50 in data set [1] was in the range of 100 to 500 nM.

Consider `Cc1cccc2c1N=C(/C=C(\O)c1cccnc1)N1CCN=C21` [Example 1-75], for which the melting point is 248 °C. In addition, the IC50 in data set [1] is 100 to 500 nM.

Take `CC(=O)Nc1ccc(/C(O)=C/C2=Nc3c(C)cccc3C3=NCCN23)cn1` [Example 1-77]: the melting point is greater than 285 °C. Moreover, the IC50 in data set [1] was less than 100 nM.

As for `Cc1cccc2c1N=C(/C=C(\O)c1ccc3[nH]cnc3c1)N1CCN=C21.Cl` [Example 1-79], the melting point was greater than 285 °C. The IC50 in data set [1] is less than 100 nM.

The compound `O/C(=C\C1=Nc2c(cccc2C(F)(F)F)C2=NCCN12)c1cccnc1` [Example 1-80] showed a melting point of 275 °C. Further, in data set [1], the IC50 is 100 to 500 nM.

As to `O/C(=C\C1=Nc2c(CN3CCOCC3)cccc2C2=NCCN12)c1cccnc1` [Example 1-82], the melting point was 198 to 202 °C (dec.). The IC50 in data set [1] was 100 to 500 nM.

For `Cl.O/C(=C\C1=Nc2c(O)cccc2C2=NCCN12)c1cccnc1` [Example 1-83], the melting point was greater than 250 °C. The IC50 in data set [1] is 100 to 500 nM.

Take `O/C(=C\C1=Nc2c(OCCN3CCOCC3)cccc2C2=NCCN12)c1cccnc1` [Example 1-84]: the melting point was 195 to 196 °C. Besides, in data set [1], the IC50 was 100 to 500 nM.

On to `CN(C)CCOc1cccc2c1N=C(/C=C(\O)c1cccnc1)N1CCN=C21` [Example 1-86], for which the melting point is 186 to 187 °C. Also, the IC50 in data set [1] was 100 to 500 nM.

With `CN(C)CCCOc1cccc2c1N=C(/C=C(\O)c1cccnc1)N1CCN=C21` [Example 1-87], the melting point was 235 °C (dec.). In data set [1], the IC50 lay in the range of 100 to 500 nM.

Take `O/C(=C\C1=Nc2c(OCC3CC3)cccc2C2=NCCN12)c1cccnc1` [Example 1-88]: the melting point was 203 °C (dec.). In addition, the IC50 in data set [1] was 100 to 500 nM.

`CC(C)(C)OC(=O)COc1cccc2c1N=C(/C=C(\O)c1cccnc1)N1CCN=C21.Cl` [Example 1-90] came in with a melting point of 222 to 223 °C. In addition, the IC50 in data set [1] is less than 100 nM.

`OCCOc1cccc2c1N=C(/C=C(\O)c1cccnc1)N1CCN=C21` [Example 1-91]: the melting point lay in the range of 211 to 212 °C. In data set [1], the IC50 fell in the range of 100 to 500 nM.

As for `OCCCOc1cccc2c1N=C(/C=C(\O)c1cccnc1)N1CCN=C21` [Example 1-92], the melting point lay in the range of 203 to 205 °C. For the same compound, the IC50 in data set [1] is less than 100 nM.

As to `CC(=O)Oc1cccc2c1N=C(/C=C(\O)c1cccnc1)N1CCN=C21` [Example 1-93], the melting point was 225 to 226 °C. Further, in data set [1], the IC50 is 100 to 500 nM.

`O/C(=C\C1=Nc2cc(N3CCOCC3)ccc2C2=NCCN12)c1cccnc1` [Example 1-94] returned a melting point of 282 °C. Also, the IC50 in data set [1] fell in the range of 100 to 500 nM.

Take `CC(=O)Nc1ccc(/C(O)=C/C2=Nc3cc(N4CCOCC4)ccc3C3=NCCN23)cn1` [Example 1-96]: the melting point is 269 °C (dec.). In data set [1], the IC50 is less than 100 nM.

As for `O/C(=C\C1=Nc2cc(N3CCOCC3)ccc2C2=NCCN12)c1cncc(O)c1` [Example 1-98], the melting point was 337 °C (dec.). Moreover, in data set [1], the IC50 is less than 100 nM.

Compound `O/C(=C\C1=Nc2cc(N3CCOCC3)ccc2C2=NCCN12)c1ccc2[nH]cnc2c1` [Example 1-100] had a melting point of 232 °C. In data set [1], the IC50 is less than 100 nM.

Take `CC(=O)Nc1ccc(/C(O)=C/C2=Nc3cc(N4CCCC(O)C4)ccc3C3=NCCN23)cn1.Cl` (stereo not shown) [Example 1-102]: the melting point was 238 °C (dec.). Moreover, the IC50 in data set [1] is 100 to 500 nM.

For `CN1CCN(c2ccc3c(c2)N=C(/C=C(\O)c2cccnc2)N2CCN=C32)CC1.Cl` [Example 1-104], the melting point is 288 °C. Further, the IC50 in data set [1] lay in the range of 100 to 500 nM.

`CC(=O)Nc1ccc(/C(O)=C/C2=Nc3cc(N4CCN(C)CC4)ccc3C3=NCCN23)cn1` [Example 1-105]: the melting point is 292 °C (dec.). The IC50 in data set [1] fell in the range of 100 to 500 nM.

The compound `CN1CCN(c2ccc3c(c2)N=C(/C=C(\O)c2ccc4[nH]cnc4c2)N2CCN=C32)CC1` [Example 1-107] displayed a melting point of 207 °C. In addition, the IC50 in data set [1] is less than 100 nM.

Compound `CN1CCN(c2ccc3c(c2)N=C(/C=C(\O)c2ccc4[nH]cnc4c2)N2CCN=C32)CC1.Cl` [Example 1-108] yielded a melting point greater than 300 °C. In addition, the IC50 in data set [1] lay in the range of 100 to 500 nM.

For the compound `CN(CCO)c1ccc2c(c1)N=C(/C=C(\O)c1ccc3[nH]cnc3c1)N1CCN=C21.Cl` [Example 1-110], the melting point was 231 °C (dec.). Besides, the IC50 in data set [1] is 100 to 500 nM.

For the compound `O/C(=C\C1=Nc2cc(CN3CCOCC3)ccc2C2=NCCN12)c1cccnc1` [Example 1-111], the melting point turned out to be 204 °C. Besides, the IC50 in data set [1] was in the range of 100 to 500 nM.

In the case of `CC(=O)Nc1ccc(/C(O)=C/C2=Nc3cc(CN4CCOCC4)ccc3C3=NCCN23)cn1` [Example 1-113], the melting point came out at 245 °C. Also, the IC50 in data set [1] lay in the range of 100 to 500 nM.

For the compound `O/C(=C\C1=Nc2cc(CN3CCOCC3)ccc2C2=NCCN12)c1ccc2[nH]cnc2c1` [Example 1-115], the melting point was found to be 219 °C. The IC50 in data set [1] fell in the range of 100 to 500 nM.

`O/C(=C\C1=Nc2cc(Cl)ccc2C2=NCCN12)c1cccnc1` [Example 1-116] returned a melting point of 226 °C. Also, the IC50 in data set [1] was in the range of 100 to 500 nM.

In turn, `Cl.O/C(=C\C1=Nc2cc(Br)ccc2C2=NCCN12)c1cccnc1` [Example 1-118] returned a melting point of 233 °C. Also, the IC50 in data set [1] fell in the range of 100 to 500 nM.

`Cc1ccc2c(c1)N=C(/C=C(\O)c1cccnc1)N1CCN=C21` [Example 1-119] yielded a melting point of 224 °C. The IC50 in data set [1] is 100 to 500 nM.

Turning to `O/C(=C\C1=Nc2cc(C(F)(F)F)ccc2C2=NCCN12)c1cccnc1` [Example 1-121], the melting point came to 264 °C. In data set [1], the IC50 lay in the range of 500 to 2000 nM.

Regarding `Cl.O/C(=C\C1=Nc2cc(C(F)(F)F)ccc2C2=NCCN12)c1cccnc1` [Example 1-122], the melting point stood at 321 °C. Besides, the IC50 in data set [1] lay in the range of 100 to 500 nM.
